Test results from patent US11629171B2, “Beta-hairpin peptidomimetics” (POLYPHOR AG, priority 2017, dated 2023).
Values after ≈ are worked out from the molar mass of the structure shown. Where a SMILES comes first, the peptide text is derived from it. Bridges are numbered along the chain shown (N, C = ends). Roman numbers before positions name the chains, in order. [ ]: non-standard residue; d: D form. The star is where a group is joined. Thr(ol) = C[C@@H](O)[C@H](N)CO; Tle = CC(C)(C)[C@H](N)C(=O)O; Hiv = CC(C)[C@H](O)C(=O)O; dDab = NCC[C@@H](N)C(=O)O; hSer = N[C@@H](CCO)C(=O)O; NHCH(CH2OH)2 = OCC(CO)N*; Nle = CCCC[C@H](N)C(=O)O; Orn = NCCC[C@H](N)C(=O)O; Dab = NCC[C@H](N)C(=O)O; Abu = CC[C@H](N)C(=O)O; Dap = NC[C@H](N)C(=O)O; Propionyl = CCC(=O)*

Tests used:
Type in all cases: cell-based
[1] = tested on: Acinetobacter baumannii 872842; details: 872842
How it was run: (§1)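 Visible-growth endpoint after 18-20 h at 35° C defines the MIC (μg/mL). Setup: CLSI broth microdilution, MH-II cation-adjusted broth with P-80 at 0.002% final, inoculum of approximately 10^6 CFU/mL, two-fold serial peptide dilutions.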

[2] = tested on: Acinetobacter baumannii DSM 30008; details: DSM 30008
How it was run: as §1

[3] = tested on: Enterobacter cloacae 848840; details: 848840
How it was run: as §1

Escherichia coli 926415 = details: 926415
How it was run: as §1

[4] = tested on: Escherichia coli ATCC 25922; details: ATCC 25922
How it was run: as §1

[5] = tested on: Klebsiella pneumoniae 968733; details: 968733
How it was run: as §1

[6] = tested on: Klebsiella pneumoniae SSI #3010; details: SSI #3010
How it was run: as §1

[7] = tested on: Pseudomonas aeruginosa ATCC 27853; details: ATCC 27853
How it was run: as §1

[8] = tested on: human red blood cells (hRBC); experiment: Hemolysis; details: red cells of human, 1 h, 200
How it was run: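 Hemoglobin release from PBS-washed hRBC at 20% (v/v), incubated 1 h at 37° C with peptides at 200 μg/mL, is measured at 540 nm. Values are blank corrected and given as a fraction of Triton X-100 lysis × 100%.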

MIC [1] | MIC [2] | MIC [3] | MIC (Escherichia coli 926415) | MIC [4] | MIC [5] | MIC [6] | MIC [7] | SMILES | Hemolysis at 200 μg/mL [8]
0.25 µg/mL (≈ 0.107 µM) | 0.0625 µg/mL (≈ 0.0267 µM) | 0.25 µg/mL (≈ 0.107 µM) | 0.5 µg/mL (≈ 0.213 µM) | 0.0625 µg/mL (≈ 0.0267 µM) | 0.5 µg/mL (≈ 0.213 µM) | 0.125 µg/mL (≈ 0.0533 µM) | 0.125 µg/mL (≈ 0.0533 µM) | CC(C)C[C@@H]1NC(=O)[C@@H](CC(C)C)NC(=O)[C@H](CCN)NC(=O)[C@@H](NC(=O)[C@H](CN)NC(=O)[C@@H](NC(=O)[C@H](CCN)NC(=O)CC[C@@H]2NC(=O)[C@@H](NC(=O)[C@H](Cc3ccc(O)cc3)NC(=O)[C@@H](NC(=O)[C@@H](O)C(C)C)[C@@H](C)O)CSSC[C@@H](C(=O)N[C@H](C(=O)N[C@@H](C)C(=O)NC(CO)CO)C(C)(C)C)NC(=O)[C@H](Cc3c[nH]c4ccccc34)NC(=O)[C@H](CO)NC(=O)[C@@H](CCN)NC2=O)[C@@H](C)O)CCNC(=O)[C@H]([C@@H](C)O)NC(=O)[C@H](CCN)NC(=O)[C@H](CCN)NC1=O [Ex. 197] (I: H-[Hiv]TYCE[dDab]SWC[Tle]A-{NHCH(CH2OH)2} / II: [Dab]T[Dap][Dab][Dab][dL]L[Dab][Dab]T; disulfide I:4-I:9; amide I:5-II:N; lactam II:4-II:C) | <1%
0.03125 µg/mL (≈ 0.013 µM) | 0.03125 µg/mL (≈ 0.013 µM) | 0.125 µg/mL (≈ 0.0518 µM) | 0.03125 µg/mL (≈ 0.013 µM) | 0.0625 µg/mL (≈ 0.0259 µM) | 0.0625 µg/mL (≈ 0.0259 µM) | 0.03125 µg/mL (≈ 0.013 µM) | 0.125 µg/mL (≈ 0.0518 µM) | CCCC[C@H](NC(C)=O)C(=O)N[C@H]1CSSC[C@@H](C(=O)N[C@H](C(N)=O)[C@@H](C)O)NC(=O)[C@H](C(C)(C)C)NC(=O)[C@H](CO)NC(=O)[C@H](Cc2c[nH]c3ccccc23)NC(=O)[C@H](CO)NC(=O)[C@@H](CCN)NC(=O)[C@H](CCC(=O)N[C@@H](CCN)C(=O)N[C@H](C(=O)N[C@@H](CN)C(=O)N[C@H]2CCNC(=O)[C@H]([C@@H](C)O)NC(=O)[C@H](CCN)NC(=O)[C@H](CCN)NC(=O)[C@H](CC)NC(=O)[C@@H](CC(C)C)NC(=O)[C@H](CCN)NC2=O)[C@@H](C)O)NC(=O)[C@H](CCN)NC(=O)[C@H](Cc2ccc(O)cc2)NC1=O [Ex. 142] (I: Ac-[Nle]CY[Dab]E[dDab]SWS[Tle]CT-NH2 / II: [Dab]T[Dap][Dab][Dab][dL][Abu][Dab][Dab]T; disulfide I:2-I:11; amide I:5-II:N; lactam II:4-II:C) | <1%
0.5 µg/mL (≈ 0.213 µM) | 0.125 µg/mL (≈ 0.0532 µM) | 0.25 µg/mL (≈ 0.106 µM) | 1 µg/mL (≈ 0.426 µM) | 0.125 µg/mL (≈ 0.0532 µM) | 2 µg/mL (≈ 0.852 µM) | 0.125 µg/mL (≈ 0.0532 µM) | 0.25 µg/mL (≈ 0.106 µM) | CC(=O)N[C@H](C(=O)N[C@H]1CCCNC(=O)[C@@H](CCC(N)=O)NC(=O)[C@H](C(C)(C)C)NC(=O)[C@H](CO)NC(=O)[C@H](Cc2c[nH]c3ccccc23)NC(=O)[C@H](CCO)NC(=O)[C@@H](CCN)NC(=O)[C@H](CCC(=O)N[C@@H](CCN)C(=O)N[C@H](C(=O)N[C@@H](CN)C(=O)N[C@H]2CCNC(=O)[C@H]([C@@H](C)O)NC(=O)[C@H](CCN)NC(=O)[C@H](CCN)NC(=O)[C@H](CC(C)C)NC(=O)[C@@H](CC(C)C)NC(=O)[C@H](CCN)NC2=O)[C@@H](C)O)NC(=O)[C@H](CO)NC(=O)[C@H](Cc2ccc(O)cc2)NC1=O)C(C)C [Ex. 20] (I: Ac-V[Orn]YSE[dDab][hSer]WS[Tle][dQ] / II: [Dab]T[Dap][Dab][Dab][dL]L[Dab][Dab]T; lactam I:2-I:C, II:4-II:C; amide I:5-II:N) | <1%
0.0625 µg/mL (≈ 0.0259 µM) | 0.03125 µg/mL (≈ 0.013 µM) | 0.125 µg/mL (≈ 0.0518 µM) | 0.125 µg/mL (≈ 0.0518 µM) | 0.03125 µg/mL (≈ 0.013 µM) | 0.125 µg/mL (≈ 0.0518 µM) | 0.0625 µg/mL (≈ 0.0259 µM) | 0.125 µg/mL (≈ 0.0518 µM) | CC(=O)N[C@H](C(=O)N[C@H](C(=O)N[C@@H](Cc1ccc(O)cc1)C(=O)N[C@H]1CSSC[C@@H](C(=O)N[C@H](C(=O)N[C@@H](C)C(=O)N[C@H](C(N)=O)[C@@H](C)O)C(C)(C)C)NC(=O)[C@H](Cc2c[nH]c3ccccc23)NC(=O)[C@H](CO)NC(=O)[C@@H](CCN)NC(=O)[C@H](CCC(=O)N[C@@H](CCN)C(=O)N[C@H](C(=O)N[C@@H](CN)C(=O)N[C@H]2CCNC(=O)[C@H]([C@@H](C)O)NC(=O)[C@H](CCN)NC(=O)[C@H](CCN)NC(=O)[C@H](CC(C)C)NC(=O)[C@@H](CC(C)C)NC(=O)[C@H](CCN)NC2=O)[C@@H](C)O)NC1=O)[C@@H](C)O)C(C)C [Ex. 220] (I: Ac-VTYCE[dDab]SWC[Tle]AT-NH2 / II: [Dab]T[Dap][Dab][Dab][dL]L[Dab][Dab]T; disulfide I:4-I:9; amide I:5-II:N; lactam II:4-II:C) | <1%
0.25 µg/mL (≈ 0.104 µM) | 0.125 µg/mL (≈ 0.0518 µM) | 0.125 µg/mL (≈ 0.0518 µM) | 0.125 µg/mL (≈ 0.0518 µM) | 0.0625 µg/mL (≈ 0.0259 µM) | 0.125 µg/mL (≈ 0.0518 µM) | 0.0625 µg/mL (≈ 0.0259 µM) | 0.125 µg/mL (≈ 0.0518 µM) | CC(C)C[C@@H]1NC(=O)[C@@H](CC(C)C)NC(=O)[C@H](CCN)NC(=O)[C@@H](NC(=O)[C@H](CCN)NC(=O)[C@@H](NC(=O)[C@H](CCN)NC(=O)CC[C@@H]2NC(=O)[C@H](CCN)NC(=O)[C@H](Cc3ccc(O)cc3)NC(=O)[C@@H](NC(=O)[C@@H](O)C(C)C)CSSC[C@@H](C(=O)N[C@H](CO)[C@@H](C)O)NC(=O)[C@H](C(C)(C)C)NC(=O)[C@H](CCO)NC(=O)[C@H](Cc3c[nH]c4ccccc34)NC(=O)[C@H](CCO)NC(=O)[C@@H](CCN)NC2=O)[C@@H](C)O)CCNC(=O)[C@H]([C@@H](C)O)NC(=O)[C@H](CCN)NC(=O)[C@H](CCN)NC1=O [Ex. 81] (I: H-[Hiv]CY[Dab]E[dDab][hSer]W[hSer][Tle]C[Thr(ol)] / II: [Dab]T[Dab][Dab][Dab][dL]L[Dab][Dab]T; disulfide I:2-I:11; amide I:5-II:N; lactam II:4-II:C) | <1%
0.03125 µg/mL (≈ 0.013 µM) | 0.0625 µg/mL (≈ 0.0259 µM) | 0.0625 µg/mL (≈ 0.0259 µM) | 0.0625 µg/mL (≈ 0.0259 µM) | 0.0625 µg/mL (≈ 0.0259 µM) | 0.125 µg/mL (≈ 0.0518 µM) | 0.0625 µg/mL (≈ 0.0259 µM) | 0.125 µg/mL (≈ 0.0518 µM) | CCC(=O)N[C@H](C(=O)N[C@H]1CSSC[C@@H](C(=O)N[C@@H](CO)C(N)=O)NC(=O)[C@H](C(C)(C)C)NC(=O)[C@H](CO)NC(=O)[C@H](Cc2c[nH]c3ccccc23)NC(=O)[C@H](CO)NC(=O)[C@@H](CCN)NC(=O)[C@H](CCC(=O)N[C@@H](CCN)C(=O)N[C@H](C(=O)N[C@@H](CN)C(=O)N[C@H]2CCNC(=O)[C@H]([C@@H](C)O)NC(=O)[C@H](CCN)NC(=O)[C@H](CCN)NC(=O)[C@H](CC(C)C)NC(=O)[C@@H](CC(C)C)NC(=O)[C@H](CCN)NC2=O)[C@@H](C)O)NC(=O)[C@H](CN)NC(=O)[C@H](Cc2ccc(O)cc2)NC1=O)C(C)C [Ex. 119] (I: Propionyl-VCY[Dap]E[dDab]SWS[Tle]CS-NH2 / II: [Dab]T[Dap][Dab][Dab][dL]L[Dab][Dab]T; disulfide I:2-I:11; amide I:5-II:N; lactam II:4-II:C) | <1%
0.25 µg/mL (≈ 0.108 µM) | 0.125 µg/mL (≈ 0.0542 µM) | 0.25 µg/mL (≈ 0.108 µM) | 1 µg/mL (≈ 0.434 µM) | 0.125 µg/mL (≈ 0.0542 µM) | 0.25 µg/mL (≈ 0.108 µM) | 0.25 µg/mL (≈ 0.108 µM) | 0.25 µg/mL (≈ 0.108 µM) | CC(=O)N[C@H](C(=O)N[C@H]1CCNC(=O)[C@@H]([C@H](C)O)NC(=O)[C@H](C(C)(C)C)NC(=O)[C@H](CO)NC(=O)[C@H](Cc2c[nH]c3ccccc23)NC(=O)[C@H](CCO)NC(=O)[C@@H](CCN)NC(=O)[C@H](CCC(=O)N[C@@H](CCN)C(=O)N[C@H](C(=O)N[C@@H](CN)C(=O)N[C@H]2CCNC(=O)[C@H]([C@@H](C)O)NC(=O)[C@H](CCN)NC(=O)[C@H](CCN)NC(=O)[C@H](CC(C)C)NC(=O)[C@@H](CC(C)C)NC(=O)[C@H](CCN)NC2=O)[C@@H](C)O)NC(=O)[C@H](CN)NC(=O)[C@H](Cc2ccc(O)cc2)NC1=O)C(C)C [Ex. 35] (I: Ac-V[Dab]Y[Dap]E[dDab][hSer]WS[Tle][dT] / II: [Dab]T[Dap][Dab][Dab][dL]L[Dab][Dab]T; lactam I:2-I:C, II:4-II:C; amide I:5-II:N) | <1%
1 µg/mL (≈ 0.418 µM) | 0.5 µg/mL (≈ 0.209 µM) | 8 µg/mL (≈ 3.34 µM) | 1 µg/mL (≈ 0.418 µM) | 0.25 µg/mL (≈ 0.104 µM) | 8 µg/mL (≈ 3.34 µM) | 0.5 µg/mL (≈ 0.209 µM) | 0.25 µg/mL (≈ 0.104 µM) | CC(C)C[C@@H]1NC(=O)[C@@H](CC(C)C)NC(=O)[C@H](CCN)NC(=O)[C@@H](NC(=O)[C@H](CCN)NC(=O)[C@@H](NC(=O)[C@H](CCN)NC(=O)CC[C@@H]2NC(=O)[C@H](CCN)NC(=O)[C@H](Cc3ccc(O)cc3)NC(=O)[C@@H](NC(=O)[C@@H](N)C(C)C)CC(=O)NCC[C@@H](C(=O)N[C@@H](CO)C(=O)O)NC(=O)[C@H](C(C)(C)C)NC(=O)[C@H](CO)NC(=O)[C@H](Cc3c[nH]c4ccccc34)NC(=O)[C@H]([C@@H](C)O)NC(=O)[C@@H](CCN)NC2=O)[C@@H](C)O)CCNC(=O)[C@H]([C@@H](C)O)NC(=O)[C@H](CCN)NC(=O)[C@H](CCN)NC1=O [Ex. 55] (I: H-VDY[Dab]E[dDab]TWS[Tle][Dab]S-OH / II: [Dab]T[Dab][Dab][Dab][dL]L[Dab][Dab]T; lactam I:2-I:11, II:4-II:C; amide I:5-II:N) | 2%
